Assay results reported in PMC6852662 (Organic & biomolecular chemistry, 2019).

Biological target: T1, PmST1 (Pasteurella multocida, UniProt Q15KI8)
T1 sequence (Q15KI8 26-412): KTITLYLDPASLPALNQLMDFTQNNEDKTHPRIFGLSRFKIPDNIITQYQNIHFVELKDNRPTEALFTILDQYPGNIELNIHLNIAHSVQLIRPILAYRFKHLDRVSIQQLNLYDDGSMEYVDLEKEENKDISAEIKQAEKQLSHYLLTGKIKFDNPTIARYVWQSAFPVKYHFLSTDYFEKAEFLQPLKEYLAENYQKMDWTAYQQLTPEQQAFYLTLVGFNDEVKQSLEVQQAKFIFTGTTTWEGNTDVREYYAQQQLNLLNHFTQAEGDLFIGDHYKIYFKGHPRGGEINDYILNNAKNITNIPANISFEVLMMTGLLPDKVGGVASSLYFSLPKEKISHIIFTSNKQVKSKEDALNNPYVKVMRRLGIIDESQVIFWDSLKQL
Test: sialylation, conversion
Format: biochemical
Conditions: poor substrate; prolonged incubation

Substance: Gb5 [4a]
- conversion: ~ 30%
